{"source": "paper PMC7365463", "about": "“Oxfendazole mediates macrofilaricidal efficacy against the filarial nematode Litomosoides sigmodontis in vivo and inhibits Onchocerca spec. motility in vitro” (PLoS Neglected Tropical Diseases, 2020)", "key": {"Acanthocheilonema viteae": {"system": "Acanthocheilonema viteae", "parameters": "method as in Denham 1980 (Ref. 6)", "details": "80L3, jirds, SC 100mg/kg 5 cons. days, ref Denham 1980 (Ref. 6), cited from earlier work"}, "[1]": {"experiment": "Bioavailability in dog (in-house)", "details": "in vivo, oral, in-house data at high dose of 25 mg/kg, read-out: Bioavailability (F)", "source_text": "Table 1 Human pharmacokinetic prediction for oxfendazole."}, "[2]": {"parameters": "method as in PMID 25701764", "details": "rat, published data; cited from earlier work"}}, "note": "Read-outs that look alike come from different tables or passages of the source.", "data": [{"smiles": "COC(=O)Nc1nc2cc(C(=O)c3ccc(F)cc3)ccc2[nH]1", "note": "[flubendazole]", "values": [{"measurement": "Reduction of worm burden", "setting": "Acanthocheilonema viteae; 6 to 10 days p.i., necropsy 73-75 days p.t.", "value": 100, "unit": "%"}, {"measurement": "Reduction of worm burden", "setting": "Acanthocheilonema viteae; 42-46 days p.i., necropsy 39-40 days p.t.", "value": 100, "unit": "%"}]}, {"smiles": "COC(=O)Nc1nc2ccc([S+]([O-])c3ccccc3)cc2[nH]1", "note": "(stereo not shown) [oxfendazole]", "values": [{"measurement": "bioavailability", "setting": "[1]", "value": "~10", "unit": "%"}, {"measurement": "Bioavailability (F)", "setting": "[2]", "value": "~35", "unit": "%"}]}]}
